Source: ChEMBL document CHEMBL5338828, “Structure-Activity Relationships of Bis-Intercalating Peptides and Their Application as Antibody-Drug Conjugate Payloads” (J Med Chem, 2023)
Calls of active or inactive are those of the source. The rule behind the calls is not given here. Where a SMILES comes first, the peptide text is derived from it. Bridges are numbered along the chain shown (N, C = ends). Roman numbers before positions name the chains, in order. [ ]: non-standard residue; d: D form. The star is where a group is joined. Quinaldoyl(3-OH) = O=C(c1nc2ccccc2cc1O)*; NMeV = CN[C@H](C(=O)O)C(C)C; Pip = O=C(O)[C@@H]1CCCCN1; dDap = NC[C@@H](N)C(=O)O

Tests used:
OVCAR-3 = assay: Cytotoxicity against human OVCAR-3 cells assessed as inhibition of cell growth incubated for 5 days by CellTiter-Glo luminescence assay; assay type: functional, cell-based; conditions: OVCAR-3, 120 h
EBC-1 = assay: Cytotoxicity against human EBC-1 cells assessed as inhibition of cell growth incubated for 5 days by CellTiter-Glo luminescence assay; assay type: functional, cell-based; conditions: EBC-1, 120 h
IGROV-1 = assay: Cytotoxicity against human IGROV-1 cells assessed as inhibition of cell growth incubated for 5 days by CellTiter-Glo luminescence assay; assay type: functional, cell-based; conditions: IGROV-1, 120 h
[1] = Stability in mouse plasma at 1 uM measured upto 1440 min by UHPLC-MS/MS analysis; assay type: ADME, cell-free; conditions: 24 h
[2] = Retention time of the compound by HPLC analysis; assay type: physicochemical
[3] = Binding affinity to biotinylated hairpin DNA (unknown origin) assessed as binding constant by SPR analysis
Clupeidae = assay: Binding affinity to Herring sperm DNA assessed as melting temperature by differential scanning calorimetric analysis
[4] = Stability in mouse plasma assessed as half-life at 1 uM measured upto 1440 min by UHPLC-MS/MS analysis; assay type: ADME, cell-free
[5] = Binding affinity to biotinylated hairpin DNA (unknown origin) at 0.312 to 5 uM by SPR analysis; conditions: dose 0.312-5 µM
[6] = Stability in mouse plasma assessed as parent compound remaining measured after 24 hrs by LC-MS analysis; assay type: ADME, cell-free; conditions: read-out: Stability

Row | Compound | IC50 (OVCAR-3) [nM] | IC50 (EBC-1) [nM] | IC50 (IGROV-1) [nM] | Stability [1] | Retention_time [2] [min] | Kd [3] [nM] | Tm (Clupeidae) [°C] | half-life at 1 µM [4] [h] | Activity [5] | remaining at 24 h [6] [%]
1 | CC(C)[C@H]1C(=O)NC[C@@H](NC(=O)c2nc3ccccc3cc2O)C(=O)N2CCCC[C@H]2C(=O)NCC(=O)N(C)CC(=O)N(C)[C@@H](C(C)C)C(=O)NC[C@@H](NC(=O)c2nc3ccccc3cc2O)C(=O)N2CCCC[C@H]2C(=O)NCC(=O)N(C)CC(=O)N1C | 18 | 46 | 39 | Stable | 17.1 | 3300 | 88 | – | – | –
2 | CC(C)[C@H]1C(=O)NC[C@@H](NC(=O)c2nc3ccccc3cc2O)C(=O)N2CCCC[C@H]2C(=O)NCC(=O)N(C)CC(=O)N(C)[C@@H](C(C)C)C(=O)OC[C@@H](NC(=O)c2nc3ccccc3cc2O)C(=O)N2CCCC[C@H]2C(=O)NCC(=O)N(C)CC(=O)N1C | 0.6 | 0.6 | 1.2 | – | 19.6 | 80 | 97 | 12 | – | –
3 | CC(C)[C@H]1C(=O)NC[C@@H](NC(=O)c2nc3ccccc3cc2O)C(=O)N2CCCC[C@H]2C(=O)NCC(=O)NCC(=O)N(C)[C@@H](C(C)C)C(=O)NC[C@@H](NC(=O)c2nc3ccccc3cc2O)C(=O)N2CCCC[C@H]2C(=O)NCC(=O)NCC(=O)N1C (I: {Quinaldoyl(3-OH)}-[dDap][Pip]GG[NMeV] / II: {Quinaldoyl(3-OH)}-[dDap][Pip]GG[NMeV]; amide I:1-II:C, I:C-II:1) | – | – | – | – | 15.1 | – | – | – | inactive | –
4 | CC(C)[C@H]1COC[C@@H](NC(=O)c2nc3ccccc3cc2O)C(=O)N2CCCC[C@H]2C(=O)NCC(=O)N(C)CC(=O)N(C)[C@@H](C(C)C)C(=O)NC[C@@H](NC(=O)c2nc3ccccc3cc2O)C(=O)N2CCCC[C@H]2C(=O)NCC(=O)N(C)CC(=O)N1C | 2.9 | 5.4 | 6.4 | Stable | 18.4 | 300 | 92 | – | – | –
5 | CC(C)[C@H]1C(=O)NCC(=O)N(C)CC(=O)N2CCCC[C@H]2C(=O)NC[C@@H](NC(=O)c2nc3ccccc3cc2O)C(=O)N(C)[C@@H](C(C)C)C(=O)NCC(=O)N(C)CC(=O)N2CCCC[C@H]2C(=O)NC[C@@H](NC(=O)c2nc3ccccc3cc2O)C(=O)N1C | – | – | – | – | 16.8 | – | – | – | inactive | –
6 | CC(C)[C@H]1C(=O)OC[C@@H](NC(=O)c2nc3ccccc3cc2O)C(=O)N2CCCC[C@H]2C(=O)NCC(=O)N(C)CC(=O)N(C)[C@@H](C(C)C)C(=O)OC[C@@H](NC(=O)c2nc3ccccc3cc2O)C(=O)N2CCCC[C@H]2C(=O)NCC(=O)N(C)CC(=O)N1C | 1 | 1.4 | 1.6 | – | 21.6 | 360 | 102 | 5.5 | – | < 5
7 | CCOC(=O)[C@H](CCc1ccccc1)N[C@@H](C)C(=O)N1CCC[C@H]1C(=O)O [ENALAPRIL] | – | – | – | – | – | – | – | 2.83 | – | –
